Source: US9493528B2, “Microphthalmia-associated transcription factor-derived peptide and composition containing same” (KNU-INDUSTRY COOPERATION FOUNDATION, priority 2013, dated 2016)
No end group written: not given here.

Tests used:
tyrosinase = experiment: Inhibitory activity against tyrosinase activity in mouse melanoma cell line B16F1 (L-DOPA); assay type: cell-based; conditions: B16F1 cells, α-MSH, 72 hours, extracts with L-DOPA 2 hours, absorbance at 490, FIG. 6
Procedure: B16F1 cells (Korean Cell Line Bank, Seoul) were added to each well of a 24-well plate (5×10^4 cells per well), along with 1 ml of DMEM, and then stabilized through incubating in a 5% CO2 incubator at 37° C. for 24 hours. α-MSH (Sigma Co, MO, USA), a melanocyte-stimulating hormone, was treated to each well, along with the peptide of SEQ ID NO: 3 in predetermined concentrations. After incubating the plate for 72 hours, the proteins were extracted therefrom. The obtained extracts were added to each well of a 96-well plate and then treated with a L-dihydroxyphenylalanine (L-DOPA) solution (100 μL) at 37° C. for 2 hours. After 2 hours, the pictures thereof were taken and the tyrosinase activities thereof were measured at […] with a microreader.

tyrosinase (TYR) = experiment: Gene expression of tyrosinase in B16F1 cells (RT-PCR); assay type: cell-based, mouse; conditions: α-MSH, 72 hours, FIG. 7
Procedure: (§1) B16F1 cells (Korean Cell Line Bank, Seoul) were added to each well of a 6-well plate (1.5×10^5 cells per well), along with 2 ml of DMEM, and then stabilized through incubating in a 5% CO2 incubator at 37° C. for 24 hours. α-MSH (Sigma Co, MO, USA), a melanocyte-stimulating hormone, was treated to each well, along with the peptide of SEQ ID NO: 3 in predetermined concentrations. After incubating the plate for 72 hours, the total RNAs were extracted therefrom and then cDNAs were synthesized. The cDNA syntheses were carried out with a Reverse Transcription Master premix (Elpisbiotech, Daejeon, Korea). Using each synthesized cDNA as a template, reverse transcription polymerase chain reaction (RT-PCR) was carried out with a ROTOR Q GENE apparatus. Each RT-PCR solution was prepared by mixing 1 μl of cDNA, 10 μl of TOPreal qRT-PCR2X premix (Enzynomics, Daejeon, Korea), 2 μl of primer set (10 pmol) and 7 μl of D. W. The RT-PCR was carried out as follows: initially at 94° C. for 10 minutes; and then at 94° C. for 10 seconds, at 58° C. for 30 seconds, and at 72° C. for 1 minute; 40 cycles.
(§2) The results obtained by measuring the gene expressions of tyrosinase, TRP-1 and TRP-2 through the above RT-PCR are shown in FIG. 7.

TRP-1 = experiment: Gene expression of TRP-1 in B16F1 cells (RT-PCR); assay type: cell-based, mouse; conditions: α-MSH, 72 hours, FIG. 7
Procedure: as §1, §2

TRP-2 = experiment: Gene expression of TRP-2 in B16F1 cells (RT-PCR); assay type: cell-based, mouse; conditions: α-MSH, 72 hours, FIG. 7
Procedure: as §1, §2

[1] = test system: mouse melanoma cell line B16F1; experiment: Inhibitory activity against melanin formation in mouse melanoma cell line B16F1; assay type: cell-based; conditions: B16F1 cells, α-MSH 100 nM, peptide 0.1, 1 and 10 μM, 24 hours, FIG. 5
Procedure: B16F1 cells (Korean Cell Line Bank, Seoul) were added to each well of a 6-well plate (1.5×10^5 cells per well), along with 2 ml of DMEM, and then incubated in a 5% CO2 incubator at 37° C. for 24 hours. α-MSH (Sigma Co, MO, USA) (100 nM) was treated to each well, along with the peptide of SEQ ID NO: 3 in the final concentrations of 0.1, 1, and 10 μM. The groups in which α-MSH (100 nM) and foskolin (Sigma Co, MO, USA) (10 μM) were respectively treated were used as positive controls. And also, the group having no treatment (i.e., no α-MSH (100 nM) treatment) and the group in which α-MSH (100 nM) and Kojic acid (Sigma Co, MO, USA) (800 μM) were treated were used as negative controls. After additionally incubating the plate for 24 hours, the pictures of each culture ware taken so as to compare the respective levels of melanin formation.

B16F1 cells = experiment: Inhibitory activity against proliferation of mouse melanoma cell line B16F1 (CCK-8); assay type: cell-based; conditions: peptide 0.01, 0.1, 1 or 10 μM, 24, 48 and 72 hours, CCK-8, FIG. 8
Procedure: B16F1 cells (Korean Cell Line Bank, Seoul) were added to each well of a 96-well plate (5×10^3 cells per well), along with 100 μL of DMEM, and then incubated in a 5% CO2 incubator at 37° C. for 24 hours. The respective wells were treated with 10 μL of each peptide solution of SEQ ID NO: 3 having a concentration of 0.01, 0.1, 1, or 10 μM. After incubating the plate for 24, 48, and 72 hours, each well was treated with CCK-8 (Dojindo Laboratories, Japan) for 1 hour and then the absorbance thereof was measured at 450 nm, using a Spectramax plus 190 plate reader (Molecular Devices, USA).

BCL-2 = experiment: Inhibitory activity against BCL-2 expression in mouse melanoma cell line B16F1 (Western blotting); assay type: cell-based; conditions: B16F1 cells, UV-B 50 mJ/cm^2 plus peptide in predetermined concentrations, 24 hours, Western blot, FIG. 9
Procedure: The expression of BCL-2, playing a critical role in proliferation of melanocytes, is controlled by MITF. Whether the BCL-2 expression in melanocytes is inhibited by the treatment of the peptide of the present invention was evaluated, using a Western blotting assay. B16F1 cells (Korean Cell Line Bank, Seoul) were added to each well of a 6-well plate (1.5×10^5 cells per well), along with 2 ml of DMEM, and then incubated in a 5% CO2 incubator at 37° C. for 24 hours. Each well was treated with UV-B irradiation (50 mJ/cm^2) and the peptide of SEQ ID NO: 3 in predetermined concentrations. After incubating the plate for 24 hours, the proteins were extracted therefrom. The extracts were subject to the Western blotting assay using an anti-BCL-2 antibody (Santa Cruz Co., CA, USA).

Row | Substance | tyrosinase activity (tyrosinase) | expression of tyrosinase (TYR) (tyrosinase (TYR)) | expression of TRP-1 (TRP-1) | expression of TRP-2 (TRP-2) | melanin formation (colour of cell culture) [1] | proliferation of B16F1 cells (B16F1 cells) | expression levels of BCL-2 (BCL-2)
1 | α-melanocyte stimulating hormone (SYSMEHFRWGKPV; ends and bridges not checked; UniProt P01189 138-150, looked up) [α-MSH, melanocyte-stimulating hormone (Sigma), used as stimulus / positive control, reference compound] | increased | increased | increased | increased |  |  | 
2 | Lys-Gly-Arg (KGR; Peptide fragment) [SEQ ID NO: 3, MITF-derived peptide fragment] | decreased in concentration-dependent manner | decreased in concentration-dependent manner | decreased in concentration-dependent manner | decreased in concentration-dependent manner | decreased according to the concentrations of the peptide | decreased in concentration-dependent manner | reduced
